The text below walks through data of ChEMBL document CHEMBL4507327 (2021).

In series [1] the target is D(1A) dopamine receptor (Homo sapiens) (UniProt P21728). The note with it: Compound concentration 10.0 uM.
Series [2] is filed under the species Rattus norvegicus. The note with it: Compound concentration 10.0 uM.
Series [3] concerns the target Muscarinic acetylcholine receptor M4 (Homo sapiens) (UniProt P08173). The following applies: Compound concentration 10.0 uM.
Series [4] has as its target T1, 5-hydroxytryptamine receptor 3A (Homo sapiens) (UniProt P46098).
T1 sequence (whole entry): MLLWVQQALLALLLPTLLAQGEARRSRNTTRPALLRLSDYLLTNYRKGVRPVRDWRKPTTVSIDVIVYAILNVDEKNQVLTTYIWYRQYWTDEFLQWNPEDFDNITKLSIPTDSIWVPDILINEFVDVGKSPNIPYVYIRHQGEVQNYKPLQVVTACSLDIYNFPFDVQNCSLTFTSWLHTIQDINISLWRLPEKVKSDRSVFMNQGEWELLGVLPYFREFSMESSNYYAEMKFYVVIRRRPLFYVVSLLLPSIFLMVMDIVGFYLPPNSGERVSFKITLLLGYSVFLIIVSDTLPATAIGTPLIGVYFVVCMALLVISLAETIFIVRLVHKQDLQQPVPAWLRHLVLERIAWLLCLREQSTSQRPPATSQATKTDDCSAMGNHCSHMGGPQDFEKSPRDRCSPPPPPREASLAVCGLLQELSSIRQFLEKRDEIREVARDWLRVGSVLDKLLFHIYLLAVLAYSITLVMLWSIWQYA
The note with it: Compound concentration 10.0 uM.

The species entered for series [5] is Oryctolagus cuniculus. The note with it: Compound concentration 10.0 uM.
The target in series [6] is Platelet-activating factor receptor (Homo sapiens) (UniProt P25105). Nature of the series: Platelet Activating Factor (PAF) Eurofins-Panlabs radioligand binding assay. Set-up: ligand concentration 1 nM. The note with it: Compound concentration 10.0 uM.
The target of series [7] is 5-hydroxytryptamine receptor 2A (Homo sapiens) (UniProt P28223). The note with it: Compound concentration 10.0 uM.
The target of series [8] is 5-hydroxytryptamine receptor 1E (Homo sapiens) (UniProt P28566). The following applies: Compound concentration 10.0 uM.
Series [9] concerns the target STE20/SPS1-related proline-alanine-rich protein kinase (Homo sapiens, UniProt Q9UEW8). Nature of the series: STLK3(ST39LGRJ) Takeda global kinase panel.
Series [10] deals with 5-hydroxytryptamine receptor 7 (Homo sapiens) (UniProt P34969). The following applies: Compound concentration 10.0 uM.
The target of series [11] is D(1B) dopamine receptor (Homo sapiens) (UniProt P21918). The following applies: Compound concentration 10.0 uM.
The target in series [12] is Beta-3 adrenergic receptor (Homo sapiens) (UniProt P13945). The following applies: Compound concentration 10.0 uM.
The species named for series [13] is Rattus norvegicus. The note with it: Compound concentration 10.0 uM. The source holds these as a separate data set.
Series [14] concerns the target Histamine H4 receptor (Homo sapiens) (UniProt Q9H3N8). The note with it: Compound concentration 10.0 uM.
Series [15] has as its target Serine/threonine-protein kinase LATS1 (Homo sapiens, UniProt O95835). Put plainly: LATS1(LAT1LGRJ) Takeda global kinase panel.
The target of series [16] is Sigma intracellular receptor 2 (Homo sapiens) (UniProt Q5BJF2). The note with it: Compound concentration 10.0 uM.
Series [17] addresses Serine/threonine-protein kinase SIK1 (Homo sapiens, UniProt P57059). Nature of the series: SIK(SIK1LHY1) Takeda global kinase panel.
Series [18] concerns the target Prostaglandin E2 receptor EP4 subtype (Homo sapiens) (UniProt P35408). Put plainly: Inhibition of Prostanoid EP4 at 10 µM in the Eurofins-Panlabs radioligand binding assay (Eurofins_assay_268420). Also noted: ligand concentration 1 nM. The note with it: Compound concentration 10.0 uM.
For series [19], the target named is Calcium/calmodulin-dependent protein kinase type II subunit beta (Homo sapiens, UniProt Q13554). Put plainly: CaMK2beta(CA2BCGT1) Takeda global kinase panel.
The target in series [20] is Angiopoietin-1 receptor (Homo sapiens, UniProt Q02763). Nature of the series: TIE2(TEK1LGF1) Takeda global kinase panel.
Series [21] deals with Bromodomain-containing protein 2 (Homo sapiens, UniProt P25440). Put plainly: BRD2(BRD2LHRC) Takeda global kinase panel.
Series [22] has as its target Leucine-rich repeat serine/threonine-protein kinase 2 (Homo sapiens, UniProt Q5S007). Put plainly: LRRK2(LRR2PGF1) Takeda global kinase panel.
The target of series [23] is Mitogen-activated protein kinase 7 (Homo sapiens, UniProt Q13164). Put plainly: ERK5(MAP7LGF1) Takeda global kinase panel.
The target in series [24] is Ephrin type-A receptor 2 (Homo sapiens, UniProt P29317). Put plainly: EphA2(EPA2LGY1) Takeda global kinase panel.
The target of series [25] is voltage-gated sodium channel, site 2 (Rattus norvegicus, UniProt F1LQQ7+O08562+O88420+O88457+P04774+P04775+P08104+P15389+P15390+Q62968). Put plainly: Inhibition of Sodium Channel, Site 2 at 10 µM in the Eurofins-Panlabs radioligand binding assay (Eurofins_assay_279510). It counts as protein assay. Set-up: ligand concentration 5 nM, non-specific ligand with concentration 100 µM Veratridine, incubation time 60 min, incubation temperature 37 °C. The note with it: male, Wistar, whole brain (except cerebellum) membranes of rats, probe [3H] Batrachotoxinin, compound concentration 10 uM.

Series [26] concerns the target AP2-associated protein kinase 1 (Homo sapiens, UniProt Q2M2I8). Nature of the series: AAK1(AAK1LGF1) Takeda global kinase panel.
The target of series [27] is Dual specificity mitogen-activated protein kinase kinase 2 (Homo sapiens, UniProt P36507). Nature of the series: MEK2 [MAP2K2(M2K2LGF1)] Takeda global kinase panel.
Series [28] addresses cAMP-dependent protein kinase catalytic subunit alpha (Homo sapiens, UniProt P17612). Put plainly: PKAalpha(PRCALGH1) Takeda global kinase panel.
Series [29] has as its target 5'-AMP-activated protein kinase catalytic subunit alpha-1 (Homo sapiens, UniProt Q13131). Nature of the series: AMPKalpha1(PRA1PGF1) Takeda global kinase panel.
For series [30], the target named is Glycogen synthase kinase-3 alpha (Homo sapiens, UniProt P49840). Put plainly: GSK3alpha(GS3ALGK1) Takeda global kinase panel.
In series [31] the target is Testis-specific serine/threonine-protein kinase 3 (Homo sapiens, UniProt Q96PN8). Nature of the series: TSSK3(TSS3LGRM) Takeda global kinase panel.
The target in series [32] is Tyrosine-protein kinase Lyn (Homo sapiens, UniProt P07948). Put plainly: Lyn(LYN1LGF1) Takeda global kinase panel.
Series [33] concerns the target Fibroblast growth factor receptor 2 (Homo sapiens, UniProt P21802). Put plainly: FGFR2(FGF2LGF1) Takeda global kinase panel.
Series [34] addresses Hepatocyte growth factor receptor (Homo sapiens, UniProt P08581). Put plainly: Met([…]) Takeda global kinase panel.
Series [35] deals with Glutamate NMDA receptor (Rattus norvegicus) (UniProt P35439+Q00959+Q00960+Q00961+Q62645+Q8VHN2+Q9R1M7). The note with it: Compound concentration 10.0 uM.
In series [36] the target is Tyrosine-protein kinase Fyn (Homo sapiens, UniProt P06241). Nature of the series: Fyn(FYN1LGF5) Takeda global kinase panel.
Tyrosine-protein kinase Fyn, sequence (P06241 whole entry): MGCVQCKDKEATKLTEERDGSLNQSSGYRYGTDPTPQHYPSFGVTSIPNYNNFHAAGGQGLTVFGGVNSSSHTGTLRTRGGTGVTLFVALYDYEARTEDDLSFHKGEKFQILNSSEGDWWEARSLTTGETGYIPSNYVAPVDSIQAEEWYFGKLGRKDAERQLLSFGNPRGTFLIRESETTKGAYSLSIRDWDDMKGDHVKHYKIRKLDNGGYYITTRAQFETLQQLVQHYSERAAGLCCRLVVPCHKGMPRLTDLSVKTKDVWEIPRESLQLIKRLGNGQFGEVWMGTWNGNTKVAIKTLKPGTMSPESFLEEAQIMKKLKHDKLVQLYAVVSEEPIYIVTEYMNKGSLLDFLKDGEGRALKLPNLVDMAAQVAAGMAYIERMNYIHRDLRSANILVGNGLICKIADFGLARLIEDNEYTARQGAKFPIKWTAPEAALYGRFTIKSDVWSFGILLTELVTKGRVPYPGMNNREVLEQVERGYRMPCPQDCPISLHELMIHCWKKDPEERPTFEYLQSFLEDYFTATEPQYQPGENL

Hepatocyte growth factor receptor, sequence (P08581 whole entry): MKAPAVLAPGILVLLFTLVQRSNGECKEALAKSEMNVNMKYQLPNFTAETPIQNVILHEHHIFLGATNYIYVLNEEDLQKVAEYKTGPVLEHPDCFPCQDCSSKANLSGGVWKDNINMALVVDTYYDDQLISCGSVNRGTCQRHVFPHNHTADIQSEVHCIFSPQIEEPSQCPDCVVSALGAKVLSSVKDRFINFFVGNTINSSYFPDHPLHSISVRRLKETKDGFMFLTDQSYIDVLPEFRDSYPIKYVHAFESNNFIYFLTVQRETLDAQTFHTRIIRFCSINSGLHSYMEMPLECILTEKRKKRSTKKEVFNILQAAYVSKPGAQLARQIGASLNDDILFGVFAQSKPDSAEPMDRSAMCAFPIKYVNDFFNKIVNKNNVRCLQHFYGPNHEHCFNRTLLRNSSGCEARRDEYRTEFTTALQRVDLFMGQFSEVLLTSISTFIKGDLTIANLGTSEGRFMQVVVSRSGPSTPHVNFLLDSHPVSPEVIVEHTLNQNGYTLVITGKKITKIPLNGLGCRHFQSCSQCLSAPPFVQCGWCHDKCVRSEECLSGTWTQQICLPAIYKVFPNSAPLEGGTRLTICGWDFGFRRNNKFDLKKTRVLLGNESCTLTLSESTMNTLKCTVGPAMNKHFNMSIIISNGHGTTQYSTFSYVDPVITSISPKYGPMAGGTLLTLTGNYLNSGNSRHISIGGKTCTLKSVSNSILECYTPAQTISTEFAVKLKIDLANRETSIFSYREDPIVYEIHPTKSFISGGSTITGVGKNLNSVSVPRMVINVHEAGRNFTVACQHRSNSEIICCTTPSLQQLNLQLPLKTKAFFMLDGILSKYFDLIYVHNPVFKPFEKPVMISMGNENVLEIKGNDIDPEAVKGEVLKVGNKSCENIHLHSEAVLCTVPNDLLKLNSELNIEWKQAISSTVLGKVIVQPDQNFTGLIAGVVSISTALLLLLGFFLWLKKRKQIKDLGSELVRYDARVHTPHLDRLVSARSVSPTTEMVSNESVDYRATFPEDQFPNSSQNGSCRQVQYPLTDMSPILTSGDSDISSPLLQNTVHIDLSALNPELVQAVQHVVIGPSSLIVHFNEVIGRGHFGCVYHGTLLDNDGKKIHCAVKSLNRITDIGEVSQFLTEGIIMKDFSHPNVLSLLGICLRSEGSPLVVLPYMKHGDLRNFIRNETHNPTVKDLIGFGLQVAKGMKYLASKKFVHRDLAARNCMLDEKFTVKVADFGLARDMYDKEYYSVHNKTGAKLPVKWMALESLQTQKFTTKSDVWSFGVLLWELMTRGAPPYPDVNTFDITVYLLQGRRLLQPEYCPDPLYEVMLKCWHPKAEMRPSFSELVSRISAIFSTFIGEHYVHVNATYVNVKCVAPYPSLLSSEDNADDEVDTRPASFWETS
Glycogen synthase kinase-3 alpha, sequence (P49840 whole entry): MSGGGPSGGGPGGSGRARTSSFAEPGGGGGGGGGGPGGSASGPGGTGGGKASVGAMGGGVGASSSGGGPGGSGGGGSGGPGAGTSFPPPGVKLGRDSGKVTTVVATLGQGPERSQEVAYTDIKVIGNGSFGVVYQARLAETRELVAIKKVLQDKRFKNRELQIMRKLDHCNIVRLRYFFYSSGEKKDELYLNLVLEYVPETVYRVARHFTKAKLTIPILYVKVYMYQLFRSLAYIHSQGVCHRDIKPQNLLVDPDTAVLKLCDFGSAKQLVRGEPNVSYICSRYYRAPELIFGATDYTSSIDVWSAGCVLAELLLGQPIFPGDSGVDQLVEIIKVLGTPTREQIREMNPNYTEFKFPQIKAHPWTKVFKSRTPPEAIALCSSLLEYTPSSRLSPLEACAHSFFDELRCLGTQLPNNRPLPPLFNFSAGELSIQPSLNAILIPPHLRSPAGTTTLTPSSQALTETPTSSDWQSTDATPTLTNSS
Angiopoietin-1 receptor, sequence (Q02763 whole entry): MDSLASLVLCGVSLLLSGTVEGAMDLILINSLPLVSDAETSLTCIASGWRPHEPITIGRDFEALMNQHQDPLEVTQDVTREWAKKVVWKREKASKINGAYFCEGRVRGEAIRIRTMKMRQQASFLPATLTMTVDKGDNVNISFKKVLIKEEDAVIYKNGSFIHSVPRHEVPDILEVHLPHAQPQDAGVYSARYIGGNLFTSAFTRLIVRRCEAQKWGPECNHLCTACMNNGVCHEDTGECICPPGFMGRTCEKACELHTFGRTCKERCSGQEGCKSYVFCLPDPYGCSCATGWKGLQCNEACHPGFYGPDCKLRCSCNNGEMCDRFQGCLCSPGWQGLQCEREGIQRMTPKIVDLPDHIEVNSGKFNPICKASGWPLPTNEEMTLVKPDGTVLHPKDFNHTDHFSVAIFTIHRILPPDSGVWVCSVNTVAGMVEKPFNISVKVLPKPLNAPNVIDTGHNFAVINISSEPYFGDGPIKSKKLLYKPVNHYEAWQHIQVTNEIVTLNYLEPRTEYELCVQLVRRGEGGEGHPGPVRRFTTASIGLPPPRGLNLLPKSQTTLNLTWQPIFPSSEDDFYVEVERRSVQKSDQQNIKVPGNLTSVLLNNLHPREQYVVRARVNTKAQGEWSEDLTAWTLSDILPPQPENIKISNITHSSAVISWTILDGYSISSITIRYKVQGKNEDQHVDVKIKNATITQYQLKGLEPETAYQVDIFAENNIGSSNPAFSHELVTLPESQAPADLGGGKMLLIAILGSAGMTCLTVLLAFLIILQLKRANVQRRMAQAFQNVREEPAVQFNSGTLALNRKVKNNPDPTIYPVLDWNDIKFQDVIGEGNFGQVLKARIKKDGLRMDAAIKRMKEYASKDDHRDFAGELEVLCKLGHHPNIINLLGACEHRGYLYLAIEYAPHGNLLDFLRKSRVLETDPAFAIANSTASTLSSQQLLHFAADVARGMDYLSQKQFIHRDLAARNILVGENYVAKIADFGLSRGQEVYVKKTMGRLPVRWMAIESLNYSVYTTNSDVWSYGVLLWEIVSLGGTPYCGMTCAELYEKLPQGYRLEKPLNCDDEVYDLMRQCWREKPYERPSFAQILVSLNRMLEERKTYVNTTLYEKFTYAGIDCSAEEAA
Histamine H4 receptor (Homo sapiens), sequence (Q9H3N8 whole entry): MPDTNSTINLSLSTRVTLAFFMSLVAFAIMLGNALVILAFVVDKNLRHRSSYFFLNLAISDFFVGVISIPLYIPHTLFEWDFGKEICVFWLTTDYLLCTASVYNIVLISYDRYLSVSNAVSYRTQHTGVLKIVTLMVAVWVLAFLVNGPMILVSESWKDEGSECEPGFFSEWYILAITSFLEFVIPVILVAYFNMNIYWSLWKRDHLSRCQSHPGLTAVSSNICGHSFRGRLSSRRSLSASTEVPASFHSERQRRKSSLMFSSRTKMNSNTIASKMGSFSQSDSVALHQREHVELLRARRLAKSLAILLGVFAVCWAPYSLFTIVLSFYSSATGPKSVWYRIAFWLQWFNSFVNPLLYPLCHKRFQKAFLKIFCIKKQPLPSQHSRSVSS
Tyrosine-protein kinase Lyn, sequence (P07948 whole entry): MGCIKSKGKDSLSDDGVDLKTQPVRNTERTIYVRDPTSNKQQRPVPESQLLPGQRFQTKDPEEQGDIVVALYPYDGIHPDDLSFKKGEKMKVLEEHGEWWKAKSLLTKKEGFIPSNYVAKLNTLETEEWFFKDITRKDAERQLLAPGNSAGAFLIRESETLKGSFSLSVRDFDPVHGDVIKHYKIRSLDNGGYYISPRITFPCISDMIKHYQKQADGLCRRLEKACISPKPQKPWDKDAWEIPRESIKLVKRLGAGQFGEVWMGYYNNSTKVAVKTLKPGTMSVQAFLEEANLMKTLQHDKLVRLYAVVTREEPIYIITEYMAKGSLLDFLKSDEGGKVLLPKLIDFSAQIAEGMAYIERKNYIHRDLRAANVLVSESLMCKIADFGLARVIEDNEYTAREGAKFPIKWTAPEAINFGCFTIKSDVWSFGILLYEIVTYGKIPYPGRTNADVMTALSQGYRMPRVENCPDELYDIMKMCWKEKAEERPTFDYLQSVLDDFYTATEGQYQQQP
Platelet-activating factor receptor (Homo sapiens), sequence (P25105 whole entry): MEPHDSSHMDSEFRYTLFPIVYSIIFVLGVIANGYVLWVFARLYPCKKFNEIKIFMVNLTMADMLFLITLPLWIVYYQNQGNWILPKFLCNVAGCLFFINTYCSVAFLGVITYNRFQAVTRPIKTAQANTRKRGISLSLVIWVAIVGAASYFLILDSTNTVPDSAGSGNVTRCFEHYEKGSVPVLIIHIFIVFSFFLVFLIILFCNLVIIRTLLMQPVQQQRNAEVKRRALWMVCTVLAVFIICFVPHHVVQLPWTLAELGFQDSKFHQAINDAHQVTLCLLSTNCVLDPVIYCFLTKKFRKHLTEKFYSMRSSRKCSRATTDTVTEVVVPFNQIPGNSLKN
Sigma intracellular receptor 2 (Homo sapiens), sequence (Q5BJF2 whole entry): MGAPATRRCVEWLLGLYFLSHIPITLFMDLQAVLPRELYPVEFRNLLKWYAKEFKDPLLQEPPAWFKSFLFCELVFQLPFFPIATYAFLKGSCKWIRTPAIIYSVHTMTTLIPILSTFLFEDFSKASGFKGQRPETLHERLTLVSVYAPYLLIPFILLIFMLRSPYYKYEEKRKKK

By inhibition is commonly meant the change of the read-out against control, counted positive when it falls. Broadly, the IC50 is the concentration at which inhibition is half-maximal. On to `CN1C(=O)[C@@H](N2CCc3cn(Cc4ccccc4)nc3C2=O)COc2ccccc21` [TP-030-1], for which the inhibition was 18.8% in [1]; 68.7% in [2]; 8.56% in [3]; 40.8% in series [4]; -6% in series [5]; 2% in series [6]. Besides, the inhibition in series [7] was 3.8%; in series [8], -1.55%; in [10], -1.17%; in [11], 1.77%; in [12], 9.8%; in [13], -7%. The figures for the inhibition in series [14], in [16] and in series [18] were 6.09%, 27% and 12%, respectively. The IC50 in [9], in series [15] and in series [17] was 1000 nM in each case.

Consider `CN1C(=O)[C@@H](N2CCc3cn(CC4CCS(=O)(=O)CC4)nc3C2=O)COc2ccccc21` [TP-030n], for which the concentration for half-maximal inhibition (IC50) in series [19], in series [20], in [21], in series [22], in [23] and in series [24] was 1000 nM each time. Moreover, the IC50 in [26], in series [27], in series [28], in [29], in series [30] and in [31] was 1000 nM in each case. Also, the half-inhibitory concentration (IC50) in series [32], in [33], in series [34] and in series [36] was 1000 nM in each case. In series [25], the inhibition at 60 min, 10 µM was 9% (not active). Moreover, the inhibition in [35] was 4%.
